# Laboratory results taken from US20240108618A1, “KRAS G12C INHIBITOR DOSING REGIMENS” (Eli Lilly and Company, priority 2022, published 2024).
# “And” between values parts separate entries of the source, which are not always exact repeats. Identical values can stand only once.
# Legend:
# [1] = test system: KRAS G12C-mutant advanced solid tumors; experiment: NCT04956640 Phase 1a monotherapy clinical response (BOR, ORR, DCR, DOR, TTR, % change from baseline, treatment duration); type: in vivo, human; set-up: key to Duration of response (months), Median / Best Response: CR: complete response; PR: partial response; uPR: a partial response pending confirmation; SD: stable disease; PD: progressive disease; NE: not estimable; details: for Best Response / Time (months) of Death / Time (months) of Partial Response - Confirmed / Time (months) of Progressive Disease / % Change from Baseline in Sum of Diameters for all Target Lesions / Time (months) of Partial Response - Pending Confirmation and Ongoing / Patients with best overall response of CR or PR / Time to response (months), Interquartile range / Time to response (months), Median / Duration of response (months), Median: Phase 1a; for Best Response / Time (months) of Death / Time (months) of Partial Response - Confirmed / Time (months) of Progressive Disease / % Change from Baseline in Sum of Diameters for all Target Lesions / Time (months) of Partial Response - Pending Confirmation and Ongoing: individual patients; for Duration of response (months), Median: Kaplan-Meier estimate
# Method: The term “BOR” as used herein refers to best overall response based on investigator assessments using RECIST criteria (version 1.1). The minimum duration for BOR of SD is at least 6 weeks after the date of first dose of study drug.
# The term “DOR” as used herein refers to duration of response, wherein DOR in months is calculated as the event or censoring date minus the response start date plus 1 day divided by 30.4375.
# The term “ORR” as used herein refers to objective response rate, wherein objective response rate is the proportion of patients with BOR of CR or PR. Objective response rate, unconfirmed, is the proportion of patients with BOR of CR, PR, or uPR.
# The term “TTR” as used herein refers to time to response, wherein TTR in months is calculated as response start date minus first dose date plus 1 day divided by 30.4375.
# (§1) NCT04956640 includes Phase 1a dose escalation (Part A of NCT04956640, see Table 3) followed by a Phase 1b dose expansion (Parts B to E of NCT04956640, see Table 4). […] Phase 1b dose expansion will include 12 cohorts (See Table 4) to further evaluate safety and clinical activity.
# [2] = test system: KRAS G12C-mutant advanced solid tumors; experiment: NCT04956640 Phase 1a, Phase 1b Cohort B4 and Cohort C2 pooled statements
# Excerpt: as §1
# [3] = starting dose 50 BID, no prior KRAS G12Ci, listed as compound of Formula I
# [4] = starting dose 50 BID, prior KRAS G12Ci Y, listed as compound of Formula I
# [5] = starting dose 100 BID, no prior KRAS G12Ci, listed as compound of Formula I
# [6] = starting dose 100 BID, prior KRAS G12Ci Y
# [7] = starting dose 100 BID, prior KRAS G12Ci Y, listed as compound of Formula I
# [8] = starting dose 150 BID, no prior KRAS G12Ci, listed as compound of Formula I
# [9] = starting dose 150 BID, prior KRAS G12Ci Y, listed as compound of Formula I
# [10] = starting dose 200 BID, no prior KRAS G12Ci, listed as compound of Formula I
# [11] = starting dose 200 BID, prior KRAS G12Ci Y, listed as compound of Formula I
# [12] = starting dose 50 mg BID (N = 14)
# [13] = starting dose 100 mg BID (N = 24)
# [14] = starting dose 150 mg BID (N = 25)
# [15] = starting dose 200 mg BID (N = 12)
# [16] = starting dose 50 mg BID, incl. intrapatient dose escalation
# [17] = starting dose 100 mg BID, incl. intrapatient dose escalation
# [18] = starting dose 150 mg BID, 11 patients with scan data
# [19] = starting dose 200 mg BID, 5 patients with scan data
compound,measurement,setting,value
"C=CC(=O)N1CCN2C(=O)c3cc(F)c(-c4ccc(F)c5sc(N)c(C#N)c45)c(Cl)c3OCC[C@H]2C1 (single isomer, unassigned) [Formula I]",Best Response,[1]; [3],PD and SD (8×) and PR Confirmed (2×)
same,Time (months) of Death,[1]; [3],9.8 months and 5.7 months and 1.8 months and 7.4 months and 11.5 months
same,Time (months) of Partial Response - Confirmed,[1]; [3],1.3 months and 1.2 months
same,Time (months) of Progressive Disease,[1]; [3],6.7 months and 2.8 months (2×) and 1.2 months and 5.3 months and 2.7 months and 11.1 months
same,% Change from Baseline in Sum of Diameters for all Target Lesions,[1]; [4],−13.0% and 50.0%
same,Best Response,[1]; [4],SD and PD
same,Time (months) of Death,[1]; [4],8.4 months and 1.8 months
same,Time (months) of Progressive Disease,[1]; [4],5.6 months and 1.3 months and 1.0 months
same,% Change from Baseline in Sum of Diameters for all Target Lesions,[1]; [5],0.7% and 0.5% and −4.8% and −6.0% and −8.1% and −17.3% and −21.1% and −22.4% and −22.7% and −25.1% and −29.8% and −30.0% and −32.3% (2×) and −35.4% and −51.4% and −54.0% and −54.8% and −57.1% and −84.4%
same,Best Response,[1]; [5],SD (10×) and PD (2×) and PR Pending (2×) and PR Confirmed (6×)
same,Time (months) of Death,[1]; [5],7.0 months and 10.3 months and 7.6 months and 1.7 months
same,Time (months) of Partial Response - Confirmed,[1]; [5],1.3 months and 1.4 months (4×) and 7.7 months
same,Time (months) of Partial Response - Pending Confirmation and Ongoing,[1]; [5],5.5 months and 1.2 months
same,Time (months) of Progressive Disease,[1]; [5],2.9 months and 2.7 months and 4.2 months and 6.9 months and 4.1 months and 1.2 months and 5.6 months and 1.3 months and 9.5 months
same,Time (months) of Death,[1]; [6],4.2 months
same,Time (months) of Partial Response - Confirmed,[1]; [6],3.1 months
same,Time (months) of Progressive Disease,[1]; [6],2.8 months
same,% Change from Baseline in Sum of Diameters for all Target Lesions,[1]; [7],−4.3% and −40.0% and −44.7%
same,Best Response,[1]; [7],SD (2×) and PR Confirmed
same,Time (months) of Partial Response - Pending Confirmation and Ongoing,"[1]; starting dose 150 BID, no prior KRAS G12Ci",1.2 months
same,% Change from Baseline in Sum of Diameters for all Target Lesions,[1]; [8],27.3% and 4.3% and 3.8% and 3.4% and 0.0% and −0.7% and −5.3% and −7.1% and −8.2% and −11.5% and −16.7% and −18.8% and −23.3% and −24.0% and −37.0% and −41.6% and −51.0% and −52.4% and −60.3% and −67.9% and −91.1%
same,Best Response,[1]; [8],PD and SD (13×) and PR Pending and PR Confirmed (6×)
same,Time (months) of Death,[1]; [8],5.3 months and 4.9 months
same,Time (months) of Partial Response - Confirmed,[1]; [8],1.5 months and 4.1 months and 4.2 months and 1.4 months (3×)
same,Time (months) of Progressive Disease,[1]; [8],9.7 months and 6.7 months and 7.6 months and 4.1 months and 3.3 months and 1.2 months
same,Time (months) of Death,"[1]; starting dose 150 BID, prior KRAS G12Ci Y",3.3 months
same,% Change from Baseline in Sum of Diameters for all Target Lesions,[1]; [9],−0.7% and −3.3% and −25.8% and −29.7%
same,Best Response,[1]; [9],SD (3×) and PD
same,Time (months) of Progressive Disease,[1]; [9],4.1 months and 1.2 months
same,Time (months) of Death,"[1]; starting dose 200 BID, no prior KRAS G12Ci",4.7 months
same,% Change from Baseline in Sum of Diameters for all Target Lesions,[1]; [10],−4.2% and −5.0% and −9.6% and −9.9% and −14.3% and −32.3% and −37.5% and −65.9% and −75.0%
same,Best Response,[1]; [10],SD (4×) and PD and PR Confirmed (4×)
same,Time (months) of Partial Response - Confirmed,[1]; [10],2.8 months and 1.4 months and 1.2 months (2×)
same,Time (months) of Progressive Disease,[1]; [10],2.9 months and 2.5 months and 1.3 months and 8.3 months and 7.4 months
same,Time (months) of Progressive Disease,"[1]; starting dose 200 BID, prior KRAS G12Ci Y",1.3 months
same,% Change from Baseline in Sum of Diameters for all Target Lesions,[1]; [11],5.3% and 1.4%
same,Best Response,[1]; [11],PD and SD
same,Patients with best overall response of CR or PR,[1]; [12],2 (14.3) N′ (%)
same,"Time to response (months), Interquartile range",[1]; [12],0.13 months
same,"Time to response (months), Median",[1]; [12],1.25 months
same,"Duration of response (months), Median",[1]; [12],NE
same,Patients with best overall response of CR or PR,[1]; [13],7 (29.2) N′ (%)
same,"Time to response (months), Interquartile range",[1]; [13],1.68 months
same,"Time to response (months), Median",[1]; [13],1.41 months
same,"Duration of response (months), Median",[1]; [13],5.45 months
same,Patients with best overall response of CR or PR,[1]; [14],6 (24.0) N′ (%)
same,"Time to response (months), Interquartile range",[1]; [14],2.69 months
same,"Time to response (months), Median",[1]; [14],1.46 months
same,"Duration of response (months), Median",[1]; [14],7.21 months
same,Patients with best overall response of CR or PR,[1]; [15],4 (33.3) N′ (%)
same,"Time to response (months), Interquartile range",[1]; [15],0.87 months
same,"Time to response (months), Median",[1]; [15],1.33 months
same,"Duration of response (months), Median",[1]; [15],6.93 months
same,median time to response,"[1]; human, in vivo",1.4 month
same,"Best observed response PR (unconfirmed and confirmed), patients",[1]; other tumor types,3
same,"Best observed response SD, patients",[1]; other tumor types,6
same,"PR, patients",[1]; starting dose 50 mg BID,0
same,DCR,[1]; [16],75%
same,ORR,[1]; [16],0%
same,"PD, patients",[1]; starting dose 100 mg BID,2 (2 PANC)
same,DCR,[1]; [17],80%
same,ORR,[1]; [17],40%
same,DCR,[1]; [18],90.9%
same,ORR,[1]; [18],18.2%
same,DCR,[1]; [19],100%
same,ORR,[1]; [19],20%
same,DLTs,[2]; as of January 2023,No DLTs were observed
same,MTD,[2]; as of January 2023,MTD was not reached
same,patients with a grade 3 or greater TEAE,[2]; as of January 2023,four
same,patients with dose reduction due to TRAE,[2]; as of January 2023,one
same,patients with permanent discontinuation due to TRAE,[2]; as of January 2023,one
same,TRAE grade in seven patients who discontinued a prior KRAS G12C inhibitor due to toxicity,[2]; in vivo,≤ 2 grade
same,median time to response,[2]; in vivo,1.4 month
